Laboratory results taken from US20180016596A1, “NUCLEIC ACID CONSTRUCTS, PLANTS COMPRISING SAME AND USES THEREOF IN ENHANCING PLANT PEST RESISTANCE AND ALTERING PLANT MONOTERPENE PROFILE” (Futuragene Israel Ltd., priority 2014, published 2018).

Tested on: Ophelimus maskelli
Experiment: Free choice experiment: Eucalyptus camaldulensis saplings with monoterpene disks exposed to Ophelimus maskelli gall wasps
Type: in vivo
Conditions: for Eucalyptus camaldulensis resistance to Ophelimus maskelli infection / Ophelimus maskelli oviposition / number of infected leaves compared to control / number of galls per leaf compared to control: free choice, in words; for Ophelimus maskelli oviposition: compared to controls; for number of infected leaves compared to control: eucalyptol vs mineral oil, geraniol and citronellal vs mineral oil and eucalyptol controls; for number of galls per leaf compared to control: vs mineral oil and eucalyptol controls
Description: Preparation of monoterpene disks—100 μl of pure monoterpene solutions of geraniol, citronellal, eucalyptol (also known as 1,8-cineole, 1,8-epoxy-p-menthane) or mineral oil (Sigma-Aldrich Cat. Nos. G9698, 27470, C80601 or M5904, respectively) were each mixed with 5 ml of Vaseline. The mixed solutions were then spread using a spatula onto 20 mm in diameter filter paper disks (Whatman 3 mm cellulose chromatography papers, Sigma-Aldrich Cat. No. Z742422).
Free choice experiments—The free-choice experiments, were gall wasps were free to choose which plant to infest in a given cage, were carried out with Ophelimus maskelli gall wasp in three net cages of 80 cm×100 cm×150 cm in a greenhouse (28 ±2° C.) as described in Bleeker et al. [Plant Physiol. (2009) 151(2): 925-935], with the following modifications. Four Eucalyptus camaldulensis 3 months old saplings were placed randomly in each cage and 10 disks with either geraniol, citronellal, eucalyptol (1,8-Cineole, used as control) or mineral oil (used as control) were attached by metal wires to the branches of each sapling (10 branches for each sapling) (see FIG. 2) so that each sapling had 10 disks attached with one of the treatments. Next, 500 Ophelimus maskelli female adult wasps were released in the middle of each net cage. One week later the disks were removed from the branches of the saplings, the saplings were taken out of the cage and thereafter the Eucalyptus saplings were transferred to an insect free net house, an outdoor perimeter surrounded by a 50 mesh insect proof net. The plants were maintained in the net house for 6 weeks after inoculation. At the end of the six week period, infection levels were evaluated by counting the number of galls developed on the treated saplings.

[1] = average of 3 cages, leaves with 1-10 galls per leaf
[2] = average of 3 cages, leaves with 10-50 galls per leaf
[3] = average of 3 cages, leaves with 50-100 galls per leaf
[4] = cage 1, leaves with 1-10 galls per leaf, 6 weeks after inoculation
[5] = cage 1, leaves with 10-50 galls per leaf, 6 weeks after inoculation
[6] = cage 1, leaves with 50-100 galls per leaf, 6 weeks after inoculation
[7] = cage 1, total, 6 weeks after inoculation
[8] = cage 2, leaves with 1-10 galls per leaf, 6 weeks after inoculation
[9] = cage 2, leaves with 10-50 galls per leaf, 6 weeks after inoculation
[10] = cage 2, leaves with 50-100 galls per leaf, 6 weeks after inoculation
[11] = cage 2, total, 6 weeks after inoculation
[12] = cage 3, leaves with 1-10 galls per leaf, 6 weeks after inoculation
[13] = cage 3, leaves with 10-50 galls per leaf, 6 weeks after inoculation
[14] = cage 3, leaves with 50-100 galls per leaf, 6 weeks after inoculation
[15] = cage 3, total, 6 weeks after inoculation

Structure (SMILES)	Number of infected leaves [1]	Number of infected leaves [2]	Number of infected leaves [3]	Number of infected leaves (average of 3 cages, total)	Number of infected leaves [4]	Number of infected leaves [5]	Number of infected leaves [6]	Number of infected leaves [7]	Number of infected leaves [8]	Number of infected leaves [9]	Number of infected leaves [10]	Number of infected leaves [11]	Number of infected leaves [12]	Number of infected leaves [13]	Number of infected leaves [14]	Number of infected leaves [15]	Eucalyptus camaldulensis resistance to Ophelimus maskelli infection	Ophelimus maskelli oviposition	number of infected leaves compared to control	number of galls per leaf compared to control
CC(C)=CCCC(C)CC=O (stereo not shown) [citronellal, 3,7-dimethyloct-6-en-1-al]	1	3	0	4	1	4	0	5	1	2	0	3	1	3	0	4	significantly increased	significantly decreased	reduced number of infected leaves	reduced number of galls per leaf
CC12CCC(CC1)C(C)(C)O2 [eucalyptol, 1,8-cineole, reference compound]	5.333	10	6	21.33	4	14	6	24	5	6	6	17	7	10	6	23	–	did not have a negative effect	slight increase	–
CC(C)=CCC/C(C)=C/CO [geraniol, (trans)-3,7-Dimethyl-2,6-octadien-1-ol]	4	2	1	7	4	3	1	8	4	2	1	7	4	1	1	6	significantly increased	significantly decreased	reduced number of infected leaves	reduced number of galls per leaf
